Experimental data from patent US8546421B1, “Oncogenic-RAS-signal dependent lethal compounds” (The Trustees of Columbia University in the City of New York, priority 2007, dated 2013).

Key:
[1] = test system: OVCAR-3; conditions: Ovarian Cancer
[2] = test system: NCI-H522; assay: NCI60 anti-cancer screening
[3] = test system: MDA-MB-435; assay: NCI60 anti-cancer screening
[4] = test system: BJ-derived cell lines (BJ-TERT/LT/ST/RAS^V12 cells); assay: Vi-Cell analysis (trypan blue exclusion); assay type: cell-based, human; conditions: 24 hours
Procedure: 200,000 cells were seeded in 6-well plates and treated with the indicated amount of 2-fold dilution series concentration of a candidate compound in 2 mL BJ growth medium. After 24 hours, cells were released with trypsin/EDTA, harvested in 1.1 mL growth medium, and transferred to a Vi-Cell (Beckman Coulter) disposable cup. After, trypan blue staining, 100 images of sample were taken and analysis of the images was carried out automatically by a Vi-Cell cell viability analyzer (Beckman Coulter).

[5] = test system: HL-60(TB); conditions: Leukemia
[6] = test system: SF-539; assay: NCI60 anti-cancer screening
[7] = test system: UACC-62; assay: NCI60 anti-cancer screening
[8] = test system: RPMI-8226; assay: NCI60 anti-cancer screening
[9] = test system: PC-3; assay: NCI60 anti-cancer screening
[10] = test system: SK-MEL-2; assay: NCI60 anti-cancer screening
[11] = test system: SW-620; assay: NCI60 anti-cancer screening
[12] = test system: HS 578T; assay: NCI60 anti-cancer screening
[13] = test system: HCT-116; assay: NCI60 anti-cancer screening
[14] = test system: HT29; assay: NCI60 anti-cancer screening
[15] = test system: MCF-7; assay: NCI60 anti-cancer screening
[16] = test system: BJ cell system (BJ-TERT, BJ-TERT/LT/ST, BJ-TERT/LT/ST/RAS^V12, DRD cells); assay: Alamar blue potency and selectivity in the engineered BJ cell system; conditions: alamar blue
Procedure: Empty “step-daughter plates” were filled with 50 μL DMEM, except for columns 3 and 13, where 100 μL of hit compound solution were cherry-picked from daughter plates. After compound transfer, 2-fold dilution series across columns 3 through 12 and columns 13 through 22 was made by transferring 50 μL of compound solution to the next column successively (10-point dilution series), with extensive mixing. Hit-picking and 2-fold dilution series were carried out using Biomek FX Span-8 module (Beckman Coulter). Assay plates were prepared by seeding 1,000 BJ-TERT, BJ-TERT/LT/ST, and BJ-TERT/LT/ST/RAS^V12 cells per well in 36 μL growth medium. Cells in assay plates were treated with compounds from step-daughter plates by transferring 4 μL. The final concentration of the compound was 5.33 μg/mL to 0.01 μg/mL in this 10-point, 2-fold dilution series. Assay plates were returned to the culture incubator and maintained for 48 hours before adding alamar blue.
Fresh daughter plates were made from the mother plate and cherry-picked hits from the first round, 2-fold dilution series experiment as described above. Assay plates were prepared by seeding 1,000 BJ-TERT, BJ-TERT/LT/ST, BJ-TERT/LT/ST/RAS^V12 or BJ-TERT/p53DD/CDK4/cyclinD1/ST/RAS^V12 (DRD) cells per well in 32 μL growth media. Cells in the assay plates were treated with compounds from the step-daughter plate by transferring 8 μL solution. The final concentration of the compound was 10.66 μg/mL to 0.02 μg/mL in a 10-point, 2-fold dilution series manner. Assay plates were returned to the culture incubator and maintained for 48 hours before adding alamar blue.
Cells were seeded in 384-well assay plates, treated with candidate compounds, and incubated in the culture incubator in 40 μL culture volume per well. […] Plates were incubated further for 16 hours to allow reduction of alamar blue, which results in the generation of red fluorescence. The fluorescence intensity was determined using a Victor 3 plate reader (Perkin Elmer) with a 535 nm excitation filter and a 590 nm emission filter.
In the subsequent two-fold dilution series testing, selectivity was calculated as the ratio of GI50 values in BJ-TERT/LT/ST and BJ-TERT/LT/ST/RAS^V12 cells. […] DRD cells are also derived from BJ primary cells and the effects of mutations in both lines should be similar.

[17] = test system: RXF393; assay: NCI60 anti-cancer screening
[18] = test system: Calu-1; assay: Alamar Blue assay, additional cell lines; assay type: cell-based, human; conditions: Calu-1, Non-small cell lung carcinoma, Alamar Blue
From the text: (§1) The results of this additional testing are summarized in Tables 7-10 (no additional cell lines were identified as sensitive for Compound 3). […] The tumor type, cell line, maximum percentage inhibition, the concentration of compound required to inhibit cell growth by 50%, and RAS mutation (if any) are also summarized.

[19] = test system: PaCa-2; assay: Alamar Blue assay, additional cell lines; assay type: cell-based, human; conditions: Pancreatic Cancer
From the text: as §1

[20] = test system: M14; assay: NCI60 anti-cancer screening

**Q.** For C=C1CCC2C(C)(C)CCC[C@]2(C)C1CC/C(C)=C\CC/C(C)=N/NC(N)=S (stereo partly drawn) [Compound 36], which “GI 100%” value [1] is on record?
**A.** 0.804 µM

**Q.** And the GI50 ([2]; Homo sapiens, NCI-H522)?
**A.** 82.9 nM

**Q.** What about the CC50 ([2]; Homo sapiens, NCI-H522, read-out: LC 50%) of the same molecule?
**A.** 1180 nM

**Q.** And the “GI 100%” value ([2]; NCI-H522, Non-small cell lung carcinoma)?
**A.** 0.309 µM

**Q.** And the GI50 ([3]; Homo sapiens, MDA-MB-435)?
**A.** 175 nM

**Q.** What about the CC50 ([3]; Homo sapiens, MDA-MB-435, read-out: LC 50%) of the same molecule?
**A.** 3000 nM

**Q.** What about the “GI 100%” value ([3]; MDA-MB-435, Breast Cancer) of the same molecule?
**A.** 0.781 µM

**Q.** What about the “potency and selectivity by trypan blue exclusion (in words)” value [4] of the same molecule?
**A.** confirmed the growth inhibitory potency and selectivity

**Q.** And the “GI 100%” value [5]?
**A.** 0.545 µM

**Q.** What about the GI50 ([6]; Homo sapiens, SF-539) of the same molecule?
**A.** 191 nM

**Q.** And the CC50 ([6]; Homo sapiens, SF-539, read-out: LC 50%)?
**A.** 638 nM

**Q.** What about the “GI 100%” value ([6]; SF-539, CNS Cancer) of the same molecule?
**A.** 0.349 µM

**Q.** What about the GI50 ([7]; Homo sapiens, UACC-62) of the same molecule?
**A.** 214 nM

**Q.** What about the CC50 ([7]; Homo sapiens, UACC-62, read-out: LC 50%) of the same molecule?
**A.** 853 nM

**Q.** What about the “GI 100%” value ([7]; UACC-62, Melanoma) of the same molecule?
**A.** 0.427 µM

**Q.** And the GI50 ([8]; Homo sapiens, RPMI-8226)?
**A.** 194 nM

**Q.** And the CC50 ([8]; Homo sapiens, RPMI-8226, read-out: LC 50%)?
**A.** 6980 nM

**Q.** And the “GI 100%” value ([8]; RPMI-8226, Leukemia)?
**A.** 0.889 µM

**Q.** What about the GI50 ([9]; Homo sapiens, PC-3) of the same molecule?
**A.** 548 nM

**Q.** And the CC50 ([9]; Homo sapiens, PC-3, read-out: LC 50%)?
**A.** 4260 nM

**Q.** And the “GI 100%” value ([9]; PC-3, Prostate Cancer)?
**A.** 1.82 µM

**Q.** What about the GI50 ([10]; Homo sapiens, SK-MEL-2) of the same molecule?
**A.** 297 nM

**Q.** And the CC50 ([10]; Homo sapiens, SK-MEL-2, read-out: LC 50%)?
**A.** 4930 nM

**Q.** What about the “GI 100%” value ([10]; SK-MEL-2, Melanoma) of the same molecule?
**A.** 1.01 µM

**Q.** What about the GI50 ([11]; Homo sapiens, SW-620) of the same molecule?
**A.** 184 nM

**Q.** And the CC50 ([11]; Homo sapiens, SW-620, read-out: LC 50%)?
**A.** 2540 nM

**Q.** What about the “GI 100%” value ([11]; SW-620, Colon Cancer) of the same molecule?
**A.** 0.569 µM

**Q.** And the “GI 100%” value ([12]; HS 578T, Breast Cancer)?
**A.** 2.27 µM

**Q.** And the GI50 ([12]; Homo sapiens, Hs-578T)?
**A.** 420 nM

**Q.** What about the CC50 ([12]; Homo sapiens, Hs-578T, read-out: LC 50%) of the same molecule?
**A.** > 10000 nM

**Q.** And the “GI 100%” value ([13]; HCT-116, Colon Cancer)?
**A.** 1.11 µM

**Q.** What about the GI50 ([13]; Homo sapiens, HCT-116) of the same molecule?
**A.** 252 nM

**Q.** And the CC50 ([13]; Homo sapiens, HCT-116, read-out: LC 50%)?
**A.** 3320 nM

**Q.** What about the “GI 100%” value ([14]; HT29, Colon Cancer) of the same molecule?
**A.** 1.37 µM

**Q.** What about the GI50 ([14]; Homo sapiens, HT-29) of the same molecule?
**A.** 322 nM

**Q.** And the CC50 ([14]; Homo sapiens, HT-29, read-out: LC 50%)?
**A.** 4100 nM

**Q.** What about the GI50 ([15]; Homo sapiens, MCF7) of the same molecule?
**A.** 265 nM

**Q.** What about the CC50 ([15]; Homo sapiens, MCF7, read-out: LC 50%) of the same molecule?
**A.** 3830 nM

**Q.** And the “GI 100%” value ([15]; MCF-7, Breast Cancer)?
**A.** 1.34 µM

**Q.** What about the “degree of selectivity between BJ-TERT/LT/ST/RAS^V12 and BJ-TERT” value [16] of the same molecule?
**A.** up to 16 fold

**Q.** What about the “growth inhibitory activity and selectivity in the BJ cell system (in words)” value ([16]; structural analogs and hits) of the same molecule?
**A.** slightly lower potency and selectivity than the original hit

**Q.** What about the GI50 ([17]; Homo sapiens, RXF 393) of the same molecule?
**A.** 181 nM

**Q.** And the CC50 ([17]; Homo sapiens, RXF 393, read-out: LC 50%)?
**A.** 2490 nM

**Q.** And the “GI 100%” value ([17]; RXF393, Renal Cancer)?
**A.** 0.485 µM

**Q.** What about the “Maximum Inhibition %” value [18] of the same molecule?
**A.** 100%

**Q.** And the GI50 ([18]; Homo sapiens)?
**A.** 300 nM

**Q.** What about the GI50 ([19]; Homo sapiens) of the same molecule?
**A.** 1500 nM

**Q.** What about the “Maximum Inhibition %” value [19] of the same molecule?
**A.** 100%

**Q.** And the GI50 ([20]; Homo sapiens, M14)?
**A.** 384 nM

**Q.** And the CC50 ([20]; Homo sapiens, M14, read-out: LC 50%)?
**A.** 4800 nM

**Q.** And the “GI 100%” value ([20]; M14, Melanoma)?
**A.** 1.59 µM
